ChEMBL document CHEMBL5465560, “Selectivity Literature for EUbOPEN Chemogenomic Library” (2024)

Key:
[1] = target: T1, Serine/threonine-protein kinase TBK1 (Homo sapiens) (UniProt Q9UHD2); test: Selectivity interaction (KinomeScan (DiscoverX)) EUB0000229b TBK1; details: at 10 µM
T1 sequence (whole entry): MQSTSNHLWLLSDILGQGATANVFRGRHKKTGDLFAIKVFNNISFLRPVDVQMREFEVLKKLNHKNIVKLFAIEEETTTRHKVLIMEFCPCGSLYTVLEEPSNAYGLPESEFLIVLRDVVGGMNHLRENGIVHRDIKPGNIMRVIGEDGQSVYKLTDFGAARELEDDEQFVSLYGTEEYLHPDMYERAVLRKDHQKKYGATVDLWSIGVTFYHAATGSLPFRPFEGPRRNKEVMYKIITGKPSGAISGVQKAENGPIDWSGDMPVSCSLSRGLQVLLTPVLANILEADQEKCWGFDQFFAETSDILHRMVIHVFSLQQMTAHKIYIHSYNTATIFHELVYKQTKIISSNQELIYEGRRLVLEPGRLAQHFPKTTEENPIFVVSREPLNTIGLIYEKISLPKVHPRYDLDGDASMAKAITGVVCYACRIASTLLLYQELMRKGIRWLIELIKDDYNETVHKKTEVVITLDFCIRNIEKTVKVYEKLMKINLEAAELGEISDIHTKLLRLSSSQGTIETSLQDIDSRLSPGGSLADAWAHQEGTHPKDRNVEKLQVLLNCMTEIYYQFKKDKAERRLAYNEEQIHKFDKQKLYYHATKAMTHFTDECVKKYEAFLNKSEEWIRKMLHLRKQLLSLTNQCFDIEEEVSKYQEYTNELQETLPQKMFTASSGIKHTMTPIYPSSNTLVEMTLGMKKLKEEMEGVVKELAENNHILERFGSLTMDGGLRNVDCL

[2] = target: T2, Serine/threonine-protein kinase D3 (Homo sapiens) (UniProt O94806); test: Selectivity interaction (KinomeScan (DiscoverX)) EUB0000655a PRKD3; details: at 10 µM
T2 sequence (whole entry): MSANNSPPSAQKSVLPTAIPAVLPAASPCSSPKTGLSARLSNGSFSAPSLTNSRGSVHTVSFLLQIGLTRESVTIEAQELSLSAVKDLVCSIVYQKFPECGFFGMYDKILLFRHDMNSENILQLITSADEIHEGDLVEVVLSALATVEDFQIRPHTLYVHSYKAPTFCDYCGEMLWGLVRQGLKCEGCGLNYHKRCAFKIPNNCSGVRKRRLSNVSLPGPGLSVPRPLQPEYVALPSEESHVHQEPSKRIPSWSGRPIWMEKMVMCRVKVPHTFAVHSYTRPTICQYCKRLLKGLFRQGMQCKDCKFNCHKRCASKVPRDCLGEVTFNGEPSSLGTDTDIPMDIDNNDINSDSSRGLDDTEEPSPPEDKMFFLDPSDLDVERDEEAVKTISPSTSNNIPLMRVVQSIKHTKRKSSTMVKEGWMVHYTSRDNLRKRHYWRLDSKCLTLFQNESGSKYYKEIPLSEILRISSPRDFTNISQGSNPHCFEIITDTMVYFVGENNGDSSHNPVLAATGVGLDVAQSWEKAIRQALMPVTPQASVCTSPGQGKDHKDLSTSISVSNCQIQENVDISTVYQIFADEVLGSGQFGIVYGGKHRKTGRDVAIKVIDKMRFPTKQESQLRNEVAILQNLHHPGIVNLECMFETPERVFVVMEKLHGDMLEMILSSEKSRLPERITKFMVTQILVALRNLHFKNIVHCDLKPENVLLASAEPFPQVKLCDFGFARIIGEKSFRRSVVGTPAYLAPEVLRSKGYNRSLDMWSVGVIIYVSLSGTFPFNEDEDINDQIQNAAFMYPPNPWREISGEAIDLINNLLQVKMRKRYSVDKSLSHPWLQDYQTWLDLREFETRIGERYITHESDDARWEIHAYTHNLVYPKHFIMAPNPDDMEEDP

Aurora kinase B = Aurora kinase B (Homo sapiens, UniProt Q96GD4); test: Selectivity interaction (KinomeScan (DiscoverX)) EUB0001079a AURKB; details: at 1 µM
Sequence of Aurora kinase B (Q96GD4 whole entry): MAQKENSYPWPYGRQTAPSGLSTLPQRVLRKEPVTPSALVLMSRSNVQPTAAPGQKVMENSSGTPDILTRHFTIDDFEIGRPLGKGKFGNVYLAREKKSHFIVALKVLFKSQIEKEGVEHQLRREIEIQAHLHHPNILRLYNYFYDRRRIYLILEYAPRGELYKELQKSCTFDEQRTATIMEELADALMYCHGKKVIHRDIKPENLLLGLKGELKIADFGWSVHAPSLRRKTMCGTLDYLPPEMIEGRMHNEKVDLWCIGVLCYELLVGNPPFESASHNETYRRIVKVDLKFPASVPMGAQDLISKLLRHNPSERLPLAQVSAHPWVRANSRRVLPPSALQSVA

[3] = target: Calcium/calmodulin-dependent protein kinase type II subunit gamma (Homo sapiens) (UniProt Q13555); test: Selectivity interaction (KinomeScan (DiscoverX)) EUB0000666a CAMK2G; details: at 10 µM
Sequence of Calcium/calmodulin-dependent protein kinase type II subunit gamma (Homo sapiens) (Q13555 whole entry): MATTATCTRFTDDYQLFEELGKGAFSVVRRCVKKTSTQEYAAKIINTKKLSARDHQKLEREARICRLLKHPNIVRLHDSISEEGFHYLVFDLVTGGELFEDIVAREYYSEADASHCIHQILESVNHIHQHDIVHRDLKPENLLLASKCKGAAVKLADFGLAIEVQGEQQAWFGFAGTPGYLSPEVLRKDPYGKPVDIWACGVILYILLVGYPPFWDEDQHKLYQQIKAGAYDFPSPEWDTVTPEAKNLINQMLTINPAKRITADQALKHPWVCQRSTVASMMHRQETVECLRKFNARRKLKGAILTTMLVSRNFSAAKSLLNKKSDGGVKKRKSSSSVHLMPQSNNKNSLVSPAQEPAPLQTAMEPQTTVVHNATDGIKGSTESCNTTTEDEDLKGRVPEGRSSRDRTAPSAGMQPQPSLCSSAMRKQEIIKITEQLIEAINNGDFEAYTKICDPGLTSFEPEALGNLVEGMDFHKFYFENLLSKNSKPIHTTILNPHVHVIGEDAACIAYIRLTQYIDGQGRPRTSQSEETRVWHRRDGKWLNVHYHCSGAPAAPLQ

[4] = target: Tyrosine-protein kinase ABL1 (Homo sapiens, UniProt P00519); test: (§1) Selectivity interaction (Millipore kinase profiler) EUB0000124b ABL1; details: at 10 µM
[5] = test system: Tyrosine-protein kinase ABL1 (Homo sapiens), P00519 [T315I]; test: as §1; details: at 10 µM
[6] = target: Mitogen-activated protein kinase 11 (Homo sapiens) (UniProt Q15759); test: Selectivity interaction (ActivX KiNativ screen (kinase selectivity in THP-1 cell lysates)) EUB0000639a MAPK11; type: subcellular; details: lysate
Sequence of Mitogen-activated protein kinase 11 (Homo sapiens) (Q15759 whole entry): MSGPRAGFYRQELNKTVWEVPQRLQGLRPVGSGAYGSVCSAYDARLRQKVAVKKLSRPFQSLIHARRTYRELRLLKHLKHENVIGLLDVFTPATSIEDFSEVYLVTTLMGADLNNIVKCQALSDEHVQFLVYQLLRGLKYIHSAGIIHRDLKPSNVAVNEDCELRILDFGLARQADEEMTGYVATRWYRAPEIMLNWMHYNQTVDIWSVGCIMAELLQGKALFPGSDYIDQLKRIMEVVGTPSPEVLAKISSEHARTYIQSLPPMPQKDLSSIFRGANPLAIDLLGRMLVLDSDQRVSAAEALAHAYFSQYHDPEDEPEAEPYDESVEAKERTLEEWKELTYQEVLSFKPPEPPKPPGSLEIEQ

Focal adhesion kinase 1 = Focal adhesion kinase 1 (Homo sapiens, UniProt Q05397); test: Selectivity interaction (KinomeScan (DiscoverX)) EUB0000607a PTK2; details: at 10 µM
Sequence of Focal adhesion kinase 1 (Q05397 2-1052 limits assumed): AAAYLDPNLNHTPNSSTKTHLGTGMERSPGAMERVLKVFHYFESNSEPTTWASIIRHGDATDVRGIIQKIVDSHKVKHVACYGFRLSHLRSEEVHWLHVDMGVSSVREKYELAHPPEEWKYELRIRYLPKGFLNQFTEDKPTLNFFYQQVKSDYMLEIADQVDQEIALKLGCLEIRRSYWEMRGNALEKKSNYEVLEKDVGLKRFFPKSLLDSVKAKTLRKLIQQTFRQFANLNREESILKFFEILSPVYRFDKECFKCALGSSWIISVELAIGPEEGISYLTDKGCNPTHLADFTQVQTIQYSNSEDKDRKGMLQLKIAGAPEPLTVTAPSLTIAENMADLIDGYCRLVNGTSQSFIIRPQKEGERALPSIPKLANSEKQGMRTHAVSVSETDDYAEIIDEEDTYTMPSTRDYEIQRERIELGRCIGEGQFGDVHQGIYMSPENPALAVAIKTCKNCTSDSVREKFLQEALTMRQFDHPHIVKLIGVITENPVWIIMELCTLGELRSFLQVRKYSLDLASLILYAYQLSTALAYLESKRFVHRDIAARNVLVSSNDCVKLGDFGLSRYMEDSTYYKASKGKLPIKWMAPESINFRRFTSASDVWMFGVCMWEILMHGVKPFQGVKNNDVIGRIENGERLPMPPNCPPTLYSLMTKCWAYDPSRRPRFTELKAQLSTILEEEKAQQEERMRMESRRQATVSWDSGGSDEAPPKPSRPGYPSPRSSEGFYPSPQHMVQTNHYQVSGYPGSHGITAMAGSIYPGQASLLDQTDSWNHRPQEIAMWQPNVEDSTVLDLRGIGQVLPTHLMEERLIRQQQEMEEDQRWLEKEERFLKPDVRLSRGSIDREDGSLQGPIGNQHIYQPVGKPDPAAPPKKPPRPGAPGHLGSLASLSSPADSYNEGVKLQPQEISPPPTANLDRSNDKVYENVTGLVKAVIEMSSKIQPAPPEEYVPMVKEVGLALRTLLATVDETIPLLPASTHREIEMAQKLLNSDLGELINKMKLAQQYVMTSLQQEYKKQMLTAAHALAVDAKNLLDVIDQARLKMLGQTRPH

Q: `COc1cc(N(C)c2ccnc3ccc(C(F)(F)F)cc23)cc(OC)c1OC` was tested. Which % binding [1] did it give?
A: 72%

Q: With `CN(C)CCOc1ccc(-c2nc(-c3ccncc3)c(-c3ccc4c(c3)CC/C4=N\O)[nH]2)cc1` as the compound, how does the % of control [2] read?
A: 40%

Q: How did the % of control (Aurora kinase B) turn out when `Nc1cnc(N2CCc3cc(S(=O)(=O)Nc4c(F)cc(Cl)cc4F)cc(N4CCCC4=O)c32)nc1` [TP-020n] was run?
A: 98%

Q: `O=C(NOC[C@H](O)CO)c1ccc(F)c(F)c1Nc1ccc(I)cc1F` was tested. Which % of control [3] did it give?
A: 100%

Q: Which % of control [4] does the source give for `CC(=O)Nc1cccc(-n2c(=O)n(C3CC3)c(=O)c3c(Nc4ccc(I)cc4F)n(C)c(=O)c(C)c32)c1` here?
A: 95%

Q: What about the % of control [5] of the same compound?
A: 112%

Q: Which results are given for `CC[C@@H]1[C@H](F)C(=O)N[C@@H]1COc1nccc2cc(C(N)=O)c(OC)cc12` [ZIMLOVISERTIB]?
A: % of inhibition ([6]; at 0.01 µM): -7.8%; % of inhibition ([6]; at 0.04 µM): -35.7%; % of inhibition ([6]; at 0.2 µM): -16.6%; % of inhibition ([6]; at 1 µM): -3.6%; % of inhibition ([6]; at 5 µM): -19.3%

Q: With `CNC(=O)Nc1ccc(-c2nc(N3CC4CCC(C3)O4)c3cnn(C4CCC5(CC4)OCCO5)c3n2)cc1` as the compound, how does the % of control (Focal adhesion kinase 1) read?
A: 78%
